What all share (format): biochemical
The target of one experiment is T1, JAK1 (Homo sapiens, UniProt P23458).
T1 construct: 5 μl of catalytic domain recombinant Kinase enzyme+Tyr peptide substrate (Invitrogen, Calif.); purchased Invitrogen
Kind of experiment: Z'-LYTE kinase assay, JAK1 tyrosine phosphorylation activity. To be noted: read-out: JAK 1 IC50. The procedure, abridged:
(§1)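 Inhibition is expressed as substrate phosphorylation relative to inhibitor-free wells, fitted with a 4-parameter logistic model for IC50. Reactions contain catalytic-domain kinase, Tyr6 peptide and ATP, run 1 h at room temperature. Development protease is added for 1 h before fluorescence readout.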

Another experiment has as its target T2, JAK2 (Homo sapiens, UniProt O60674).
T2 construct: 5 μl of catalytic domain recombinant Kinase enzyme+Tyr peptide substrate (Invitrogen, Calif.); purchased Invitrogen
Kind of experiment: Z'-LYTE kinase assay, JAK2 tyrosine phosphorylation activity. The gist of the method: as §1

The target in another experiment is T3, JAK3 (Homo sapiens, UniProt P52333).
T3 construct: 5 μl of catalytic domain recombinant Kinase enzyme+Tyr peptide substrate (Invitrogen, Calif.); purchased Invitrogen
Kind of experiment: Z'-LYTE kinase assay, JAK3 tyrosine phosphorylation activity. The gist of the method:
as §1

The next experiment concerns the target Syk (Homo sapiens, UniProt P43405). Put plainly: Syk IC50 (Table 1; method not given).

Experimental findings from US8853230B2, “Inhibitors of JAK” (Portola Pharmaceuticals, Inc., priority 2009, dated 2014) are described below.

T1 sequence (P23458 875-1153 limits assumed): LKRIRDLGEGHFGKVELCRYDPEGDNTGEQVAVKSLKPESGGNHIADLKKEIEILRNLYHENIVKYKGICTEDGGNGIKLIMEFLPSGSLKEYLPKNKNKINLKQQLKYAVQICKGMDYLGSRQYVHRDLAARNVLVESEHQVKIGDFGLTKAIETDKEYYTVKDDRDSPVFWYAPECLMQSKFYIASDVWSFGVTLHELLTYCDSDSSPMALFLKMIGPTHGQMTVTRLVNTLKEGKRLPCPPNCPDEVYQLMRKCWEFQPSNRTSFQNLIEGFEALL
T2 sequence (O60674 849-1124 limits assumed): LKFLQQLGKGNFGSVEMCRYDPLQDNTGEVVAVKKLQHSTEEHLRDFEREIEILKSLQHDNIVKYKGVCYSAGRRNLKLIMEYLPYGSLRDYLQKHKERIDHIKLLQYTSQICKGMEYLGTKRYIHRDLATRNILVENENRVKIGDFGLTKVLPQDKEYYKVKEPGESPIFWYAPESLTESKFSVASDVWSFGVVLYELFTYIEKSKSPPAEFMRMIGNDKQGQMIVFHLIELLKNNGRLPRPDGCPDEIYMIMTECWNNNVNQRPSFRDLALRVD
T3 sequence (P52333 822-1111 limits assumed): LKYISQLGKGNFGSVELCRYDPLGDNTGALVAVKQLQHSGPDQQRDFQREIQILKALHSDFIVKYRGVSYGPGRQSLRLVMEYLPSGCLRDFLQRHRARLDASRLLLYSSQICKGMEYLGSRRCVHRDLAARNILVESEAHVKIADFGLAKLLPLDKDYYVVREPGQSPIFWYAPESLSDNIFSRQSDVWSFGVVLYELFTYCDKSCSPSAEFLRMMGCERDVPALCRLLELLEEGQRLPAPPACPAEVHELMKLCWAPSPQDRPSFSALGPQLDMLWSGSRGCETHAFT

Broadly, the IC50 is the midpoint of a concentration-inhibition curve. Consider `NC(=O)c1cnc(Nc2ccc(F)c(NC(=O)N3CCC3)c2)cc1NCc1cccc(F)c1` [Example 305, 6-(3-(azetidine-1-carboxamido)-4-fluorophenylamino)-4-(3-fluorobenzylamino)nicotinamide], for which the concentration for half-maximal inhibition (IC50) was 100 to 1000 nM at JAK1, 100 to 1000 nM against JAK2, 1 to 10 nM against JAK3 and above 1000 nM against Syk.

Regarding `COCC(=O)Nc1cccc(Nc2ncc(C(N)=O)c(N[C@@H](C)c3ccccc3)n2)c1` [Example 42, (S)-2-(3-(2-methoxyacetamido)phenylamino)-4-(1-phenylethylamino)pyrimidine-5-carboxamide], the IC50 on JAK1 is 100 to 1000 nM; against JAK2, 100 to 1000 nM; against JAK3, 100 to 1000 nM; against Syk, above 1000 nM.

Regarding `CC(=O)Nc1cccc(Nc2ncc(C(N)=O)c(NC3CCCC3)n2)c1` [Example 15, 2-(3-acetamidophenylamino)-4-(cyclopentylamino)pyrimidine-5-carboxamide], the concentration for half-maximal inhibition (IC50) at JAK1 lay within 10 to 100 nM; against JAK2, 10 to 100 nM; on JAK3 it was 1 to 10 nM; at Syk, 100 to 1000 nM.

Take `COCC(=O)Nc1cccc(Nc2ncc(C(N)=O)c(NC3CCC3)n2)c1` [Example 55, 4-(cyclobutylamino)-2-(3-(2-methoxyacetamido)phenylamino)pyrimidine-5-carboxamide]: the 50% inhibitory concentration (IC50) on JAK1 was 10 to 100 nM; on JAK2, 10 to 100 nM; at JAK3, 1 to 10 nM; against Syk, 100 to 1000 nM.

For `COCC(=O)Nc1cccc(Nc2ncc(C(N)=O)c(NCc3c(F)ccc(F)c3F)n2)c1` [Example 58, 2-(3-(2-methoxyacetamido)phenylamino)-4-(2,3,6-trifluorobenzylamino)pyrimidine-5-carboxamide], the IC50 on JAK1 is 10 to 100 nM; on JAK2, 1 to 10 nM; at JAK3 it was 1 to 10 nM; against Syk, 100 to 1000 nM.

For `CNC(=O)Nc1cccc(Nc2ncc(C(N)=O)c(NC3CCCC3)n2)c1` [Example 34, 4-(cyclopentylamino)-2-(3-(3-methylureido)phenylamino)pyrimidine-5-carboxamide], the IC50 is 10 to 100 nM on JAK1, 10 to 100 nM against JAK2, 1 to 10 nM against JAK3 and 100 to 1000 nM against Syk.

Regarding `CC(=O)Nc1cccc(Nc2ncc(C(N)=O)c(NCc3c(F)ccc(F)c3F)n2)c1` [Example 59, 2-(3-acetamidophenylamino)-4-(2,3,6-trifluorobenzylamino)pyrimidine-5-carboxamide], the IC50 at JAK1 fell in the range of 10 to 100 nM; at JAK2, 10 to 100 nM; against JAK3 it was 1 to 10 nM; against Syk, 100 to 1000 nM.

`CC(=O)Nc1cccc(Nc2ncc(C(N)=O)c(N[C@H](C)c3ccccc3)n2)c1` [Example 71, (R)-2-(3-acetamidophenylamino)-4-(1-phenylethylamino)pyrimidine-5-carboxamide]: the half-inhibitory concentration (IC50) was 100 to 1000 nM at JAK1, 10 to 100 nM on JAK2, 1 to 10 nM on JAK3 and above 1000 nM on Syk.

On to `COC(=O)Nc1cc(Nc2ncc(C(N)=O)c(NC3CCCC3)n2)ccc1Cl` [Example 25, methyl 5-(5-carbamoyl-4-(cyclopentylamino)pyrimidin-2-ylamino)-2-chlorophenylcarbamate], for which the IC50 at JAK1 was 10 to 100 nM; at JAK2 it was 100 to 1000 nM; at JAK3 it was 10 to 100 nM; on Syk it was 100 to 1000 nM.

For the molecule `CC(=O)Nc1cccc(Nc2ncc(C(N)=O)c(N[C@@H](C)c3ccccc3)n2)c1` [Example 64, (S)-2-(3-acetamidophenylamino)-4-(1-phenylethylamino)pyrimidine-5-carboxamide], the IC50 at JAK1 is 100 to 1000 nM; against JAK2 it was 100 to 1000 nM; at JAK3, 10 to 100 nM; against Syk it was above 1000 nM.

With `CC(=O)Nc1cccc(Nc2ncc(C(N)=O)c(NCc3ccc(Cl)c(Cl)c3)n2)c1` [Example 70, 2-(3-acetamidophenylamino)-4-(3,4-dichlorobenzylamino)pyrimidine-5-carboxamide], the IC50 on JAK1 was above 1000 nM; against JAK2, 100 to 1000 nM; against JAK3 it was 100 to 1000 nM; against Syk it was above 1000 nM.

`COCC(=O)Nc1cccc(Nc2ncc(C(N)=O)c(NCc3ccc(OC)cc3)n2)c1` [Example 44, 2-(3-(2-methoxyacetamido)phenylamino)-4-(4-methoxybenzylamino)pyrimidine-5-carboxamide]: the IC50 at JAK1 was 100 to 1000 nM; against JAK2, 100 to 1000 nM; against JAK3, 10 to 100 nM; at Syk it was above 1000 nM.

As for `CC(=O)Nc1cccc(Nc2ncc(C(N)=O)c(NCC(N)=O)n2)c1` [Example 50, 2-(3-acetamidophenylamino)-4-(2-amino-2-oxoethylamino)pyrimidine-5-carboxamide], the IC50 on JAK1 is 100 to 1000 nM; against JAK2 it was 100 to 1000 nM; against JAK3, 100 to 1000 nM; on Syk it was above 1000 nM.

As to `COCC(=O)Nc1cccc(Nc2ncc(C(N)=O)c(NCc3ccc(C)cc3)n2)c1` [Example 43, 2-(3-(2-methoxyacetamido)phenylamino)-4-(4-methylbenzylamino)pyrimidine-5-carboxamide], the IC50 at JAK1 is 100 to 1000 nM; against JAK2, 100 to 1000 nM; against JAK3, 10 to 100 nM; against Syk, above 1000 nM.

As to `CC(=O)Nc1cccc(Nc2ncc(C(N)=O)c(NCC#N)n2)c1` [Example 74, 2-(3-acetamidophenylamino)-4-(cyanomethylamino)pyrimidine-5-carboxamide], the IC50 at JAK1 lay within 10 to 100 nM; at JAK2, 10 to 100 nM; against JAK3, 10 to 100 nM; against Syk, 100 to 1000 nM.

Consider `CC(=O)Nc1cccc(Nc2ncc(C(N)=O)c(NC3CCC3)n2)c1` [Example 1, 2-(3-acetamidophenylamino)-4-(cyclobutylamino)pyrimidine-5-carboxamide], for which the IC50 fell in the range of 10 to 100 nM on JAK1, 10 to 100 nM at JAK2, 1 to 10 nM against JAK3 and 100 to 1000 nM at Syk.

Take `COC(=O)Nc1cc(Nc2ncc(C(N)=O)c(NCC(F)(F)F)n2)ccc1Cl` [Example 18, methyl 5-(5-carbamoyl-4-(2,2,2-trifluoroethylamino)pyrimidin-2-ylamino)-2-chlorophenylcarbamate]: the concentration for half-maximal inhibition (IC50) was above 1000 nM on JAK1, 100 to 1000 nM against JAK2, 10 to 100 nM against JAK3 and above 1000 nM on Syk.

Regarding `CN(C)[C@@H]1CCN(C(=O)Nc2cccc(Nc3cc(NCc4cccc(F)c4)c(C(N)=O)cn3)c2)C1` [Example 306, (R)-6-(3-(3-(dimethylamino)pyrrolidine-1-carboxamido)phenylamino)-4-(3-fluorobenzylamino)nicotinamide], the IC50 at JAK1 was 100 to 1000 nM; at JAK2 it was 10 to 100 nM; against JAK3 it was below 1 nM; on Syk, above 1000 nM.

Consider `CNC(=O)CNc1nc(Nc2cccc(NC(C)=O)c2)ncc1C(N)=O` [Example 72, 2-(3-acetamidophenylamino)-4-(2-(methylamino)-2-oxoethylamino)pyrimidine-5-carboxamide], for which the 50% inhibitory concentration (IC50) at JAK1 was 100 to 1000 nM; against JAK2 it was 100 to 1000 nM; on JAK3, 10 to 100 nM; against Syk it was above 1000 nM.

On to `CC(=O)Nc1cccc(Nc2ncc(C(N)=O)c(NCc3ccc(C)cc3)n2)c1` [Example 67, 2-(3-acetamidophenylamino)-4-(4-methylbenzylamino)pyrimidine-5-carboxamide], for which the IC50 on JAK1 is 100 to 1000 nM; on JAK2, 100 to 1000 nM; against JAK3, 10 to 100 nM; at Syk it was above 1000 nM.

Turning to `CC(=O)Nc1cccc(Nc2ncc(C(N)=O)c(NCc3ccc(Cl)cc3)n2)c1` [Example 69, 2-(3-acetamidophenylamino)-4-(4-chlorobenzylamino)pyrimidine-5-carboxamide], the half-inhibitory concentration (IC50) at JAK1 is 100 to 1000 nM; against JAK2, 100 to 1000 nM; at JAK3 it was 10 to 100 nM; against Syk, above 1000 nM.

For the molecule `CC(=O)Nc1cccc(Nc2ncc(C(N)=O)c(N(C)Cc3ccccc3)n2)c1` [Example 54, 2-(3-acetamidophenylamino)-4-(benzyl(methyl)amino)pyrimidine-5-carboxamide], the 50% inhibitory concentration (IC50) at JAK1 was above 1000 nM; on JAK2 it was 100 to 1000 nM; against JAK3, 100 to 1000 nM; on Syk, above 1000 nM.

For the molecule `CN(C)C(=O)Nc1cccc(Nc2ncc(C(N)=O)c(NC3CCCC3)n2)c1` [Example 35, 4-(cyclopentylamino)-2-(3-(3,3-dimethylureido)phenylamino)pyrimidine-5-carboxamide], the IC50 lay in the range of 10 to 100 nM on JAK1, 10 to 100 nM against JAK2, 1 to 10 nM on JAK3 and 100 to 1000 nM against Syk.

In the case of `COCC(=O)Nc1cccc(Nc2ncc(C(N)=O)c(NCc3ccc(Cl)c(Cl)c3)n2)c1` [Example 46, 4-(3,4-dichlorobenzylamino)-2-(3-(2-methoxyacetamido)phenylamino)pyrimidine-5-carboxamide], the IC50 is above 1000 nM on JAK1, above 1000 nM against JAK2, 100 to 1000 nM against JAK3 and above 1000 nM on Syk.

Regarding `COCC(=O)Nc1cccc(Nc2ncc(C(N)=O)c(NC3CCCC3)n2)c1` [Example 22, 4-(cyclopentylamino)-2-(3-(2-methoxyacetamido)phenylamino)pyrimidine-5-carboxamide], the IC50 on JAK1 lay in the range of 10 to 100 nM; at JAK2, 10 to 100 nM; on JAK3, 1 to 10 nM; at Syk, 100 to 1000 nM.

With `CC(=O)Nc1cccc(Nc2ncc(C(N)=O)c(N[C@@H](CO)CC(C)C)n2)c1` [Example 62, (R)-2-(3-acetamidophenylamino)-4-(1-hydroxy-4-methylpentan-2-ylamino)pyrimidine-5-carboxamide], the concentration for half-maximal inhibition (IC50) was 10 to 100 nM at JAK1, 100 to 1000 nM at JAK2, 10 to 100 nM on JAK3 and above 1000 nM against Syk.
